Target: T1, Cathepsin K (Homo sapiens, UniProt P43235)
T1 sequence (P43235 whole entry): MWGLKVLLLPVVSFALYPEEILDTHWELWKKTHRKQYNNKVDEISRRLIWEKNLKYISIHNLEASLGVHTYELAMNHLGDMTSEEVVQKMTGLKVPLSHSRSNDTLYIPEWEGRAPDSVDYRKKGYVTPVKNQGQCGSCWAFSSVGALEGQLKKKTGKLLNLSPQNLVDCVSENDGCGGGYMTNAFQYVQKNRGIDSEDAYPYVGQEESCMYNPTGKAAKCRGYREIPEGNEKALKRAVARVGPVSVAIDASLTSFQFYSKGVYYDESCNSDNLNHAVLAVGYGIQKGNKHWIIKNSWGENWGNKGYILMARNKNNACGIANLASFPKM
Assay: Inhibitory activity against recombinant human cathepsin K

Structure (SMILES) | IC50 [nM]
CC(C)(C)OC(=O)N[C@H](C=O)c1ccccc1 | 51
CC(C)(C)OC(=O)NCC=O | 5800
CCCC[C@@H](C=O)NC(=O)[C@H](CC(C)C)NC(=O)OCc1ccccc1 [CALPEPTIN] | 0.11
CCCCCC[C@@H](C=O)NC(=O)OC(C)(C)C | 23
CC(C)(C)OC(=O)N[C@H](C=O)CCC1CCCCC1 | 26
CC(C)(C)OC(=O)N[C@H](C=O)CSCc1ccccc1 | 40
CN(CCC[C@@H](C=O)NC(=O)OC(C)(C)C)C(=O)C(F)(F)F | 29
CC(C)(C)OC(=O)N[C@H](C=O)COCc1ccccc1 | 38
CC(C)(C)OC(=O)N[C@H](C=O)CCCCNC(=O)C(F)(F)F | 41
CC(C)(C)OC(=O)N[C@H](C=O)CCc1ccccc1 | 30
COC(=O)NCCCC[C@@H](C=O)NC(=O)OC(C)(C)C | 15
CC(C)(C)OC(=O)N[C@H](C=O)Cc1ccccc1 | 110
CC(C)(C)OC(=O)N[C@H](C=O)CCCC1CCCCC1 | 16
CC(C)(C)OC(=O)N[C@H](C=O)CCCc1ccccc1 | 15
CN(CCCC[C@@H](C=O)NC(=O)OC(C)(C)C)C(=O)C(F)(F)F | 50
CC(C)(C)OC(=O)N[C@H](C=O)CC1CCCCC1 | 36
CC(C)(C)OC(=O)N[C@H](C=O)CCCC(F)(F)F | 87
CN(CC[C@@H](C=O)NC(=O)OC(C)(C)C)C(=O)C(F)(F)F | 98

Second part, the compound after the results:

IC50 [nM] | Structure (SMILES)
41 | C/C=C\C[C@@H](C=O)NC(=O)OC(C)(C)C
110 | CCCCC[C@@H](C=O)NC(=O)OC(C)(C)C
680 | COCC[C@@H](C=O)NC(=O)OC(C)(C)C
410 | CC#CC[C@@H](C=O)NC(=O)OC(C)(C)C
31 | CC(C)C[C@@H](C=O)NC(=O)OC(C)(C)C
250 | CC(C)(C)C[C@@H](C=O)NC(=O)OC(C)(C)C
130 | CCC(C)[C@H](C=O)NC(=O)OC(C)(C)C (stereo partly drawn)
250 | CCC(C)[C@@H](C=O)NC(=O)OC(C)(C)C (stereo partly drawn)
58 | CC[C@@H](C=O)NC(=O)OC(C)(C)C
370 | COC(=O)NC[C@@H](C=O)NC(=O)OC(C)(C)C
660 | CCOC[C@@H](C=O)NC(=O)OC(C)(C)C
79 | C=C(C)C[C@@H](C=O)NC(=O)OC(C)(C)C
51 | CCCC[C@@H](C=O)NC(=O)OC(C)(C)C
38 | CCC[C@@H](C=O)NC(=O)OC(C)(C)C
150 | C/C=C/C[C@@H](C=O)NC(=O)OC(C)(C)C
160 | CC(C)[C@@H](C=O)NC(=O)OC(C)(C)C
200 | C[C@@H](C=O)NC(=O)OC(C)(C)C
78 | CSCC[C@@H](C=O)NC(=O)OC(C)(C)C
83 | CCSC[C@@H](C=O)NC(=O)OC(C)(C)C
52000 | CC(C)(C)OC(=O)N[C@H](C=O)C(C)(C)C
